According to patent US8759535B2, “Substituted fused imidazole derivatives, pharmaceutical compositions, and methods of use thereof” (High Point Pharmaceuticals, LLC, priority 2010, dated 2014):
Counter-ions that a name gives are not always drawn.

The compounds below were run on HMOX1 (assay: HMOX1 Protein Assay (immunostaining of HO-1 in NHLF cells, GE InCell 1000)). Conditions: Homo sapiens, fold change above DMSO treated cells, 3 μM compound (asterisk), 16 h.
Type: cell-based
Summary of the method: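 Fold induction of HO-1 over vehicle, normally at 5 μM compound (asterisk marks 3 μM), in 0.8% DMSO medium. Normal human lung fibroblasts were treated 16 h, then paraformaldehyde-fixed, anti-HO-1/Alexa 488 stained with Hoechst, and read by high-content imaging.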

Structure (SMILES) | fold induction at 3 µM
Cn1c(Nc2nc3ccc(OC(F)(F)F)cc3s2)nc2cc(C(=O)NCCCOCCO)ccc21 [Example 250, 1-Methyl-2-(6-trifluoromethoxy-benzothiazol-2-ylamino)-1H-benzoimidazole-5-carboxylic acid [3-(2-hydroxy-ethoxy)-propyl]-amide] | 25.1
C[C@H](NC(=O)c1ccc2c(c1)nc(Nc1nc3ccc(Cl)cc3s1)n2C)C(=O)N1CCN(C)CC1 [Example 464, 2-(6-Chloro-benzothiazol-2-ylamino)-1-methyl-1H-benzoimidazole-5-carboxylic acid [(S)-1-methyl-2-(4-methyl-piperazin-1-yl)-2-oxo-ethyl]-amide] | 27.2
CN1CCN(C(=O)CCNC(=O)c2ccc3c(c2)nc(Nc2nc4ccc(C(F)(F)F)cc4s2)n3C)CC1 [Example 375, 1-Methyl-2-(6-trifluoromethyl-benzothiazol-2-ylamino)-1H-benzoimidazole-5-carboxylic acid [3-(4-methyl-piperazin-1-yl)-3-oxo-propyl]-amide] | 19.4

Same assay, conditions: Homo sapiens, fold change above DMSO treated cells, 5 μM compound, 16 h

Structure (SMILES) | fold induction at 5 µM
COC(=O)c1ccc2c(c1)nc(Nc1nc3ccc(Cl)cc3s1)n2C [Example 28, 2-(6-Chloro-benzothiazol-2-ylamino)-1-methyl-1H-benzoimidazole-5-carboxylic acid methyl ester] | 10.1
CNC(=O)c1ccc2c(c1)nc(Nc1nc3cc(F)ccc3s1)n2C [Example 122, 2-(5-Fluoro-benzothiazol-2-ylamino)-1-methyl-1H-benzimidazole-5-carboxylic acid methylamide] | 26.1
CCOCCCNC(=O)c1ccc2c(c1)nc(Nc1nc3ccc(OC(F)(F)F)cc3s1)n2C [Example 14, 1-Methyl-2-(6-trifluoromethoxy-benzothiazol-2-ylamino)-1H-benzoimidazole-5-carboxylic acid (3-ethoxy-propyl)-amide] | 22
Cn1c(Nc2nc3ccc(Cl)cc3s2)nc2cc(C(=O)NCC(C)(C)CO)ccc21 [Example 218, 2-(6-Chloro-benzothiazol-2-ylamino)-1-methyl-1H-benzoimidazole-5-carboxylic acid (3-hydroxy-2,2-dimethyl-propyl)-amide] | 39.2
CN(C)C(=O)CCNC(=O)c1ccc2c(c1)nc(Nc1nc3ccc(OC(F)(F)F)cc3s1)n2C [Example 135, 1-Methyl-2-(6-trifluoromethoxy-benzothiazol-2-ylamino)-1H-benzimidazole-5-carboxylic acid (2-dimethylcarbamoyl-ethyl)-amide] | 49.6
CN(C)CC1CCCN(C(=O)CNC(=O)c2ccc3c(c2)nc(Nc2nc4ccc(Cl)cc4s2)n3C)C1 (stereo not shown) [Example 461, 2-(6-Chloro-benzothiazol-2-ylamino)-1-methyl-1H-benzoimidazole-5-carboxylic acid [2-(3-dimethylaminomethyl-piperidin-1-yl)-2-oxo-ethyl]-amide] | 27.1
Cn1c(Nc2nc3ccc(OC(F)(F)F)cc3s2)nc2cc(C(=O)NCCn3cccn3)ccc21 [Example 328, 1-Methyl-2-(6-trifluoromethoxy-benzothiazol-2-ylamino)-1H-benzoimidazole-5-carboxylic acid (2-pyrazol-1-yl-ethyl)-amide] | 29.4
Cn1c(Nc2nc3ccc(OC(F)(F)F)cc3s2)nc2cc(C(=O)NCC(=O)N3CCCC(O)C3)ccc21 (stereo not shown) [Example 431, 1-Methyl-2-(6-trifluoromethoxy-benzothiazol-2-ylamino)-1H-benzoimidazole-5-carboxylic acid [2-(3-hydroxy-piperidin-1-yl)-2-oxo-ethyl]-amide] | 49.4
CCn1c(Nc2nc3ccc(OC(F)(F)F)cc3s2)nc2cc(C(=O)OC)ccc21 [Example 153, 1-Ethyl-2-(6-trifluoromethoxy-benzothiazol-2-ylamino)-1H-benzoimidazole-5-carboxylic acid methyl ester] | 4
CNCCn1c(Nc2nc3ccc(Cl)cc3s2)nc2cc(C(=O)NCCOCCO)ccc21 [Example 240, 2-(6-Chloro-benzothiazol-2-ylamino)-1-(2-methylamino-ethyl)-1H-benzoimidazole-5-carboxylic acid [2-(2-hydroxy-ethoxy)-ethyl]-amide hydrochloride] | 35.4
CCNC(=O)c1ccc2c(c1)nc(Nc1nc3ccc(OC(F)(F)F)cc3s1)n2C [Example 6, 1-Methyl-2-(6-trifluoromethoxy-benzothiazol-2-ylamino)-1H-benzoimidazole-5-carboxylic acid ethylamide] | 9.45
COCCn1c(Nc2nc3ccc(Cl)cc3s2)nc2cc(C(=O)NCC(=O)N3CCC(CO)CC3)ccc21 [Example 443, 2-(6-Chloro-benzothiazol-2-ylamino)-1-(2-methoxy-ethyl)-1H-benzoimidazole-5-carboxylic acid [2-(4-hydroxymethyl-piperidin-1-yl)-2-oxo-ethyl]-amide] | 39.8
Cn1c(Nc2nc3cc(F)c(F)cc3s2)nc2cc(C(=O)O)ccc21 [Example 34, 2-(5,6-Difluoro-benzothiazol-2-ylamino)-1-methyl-1H-benzoimidazole-5-carboxylic acid] | 15.4
CN(C)C(=O)C1(NC(=O)c2ccc3c(c2)nc(Nc2nc4ccc(OC(F)(F)F)cc4s2)n3C)CC1 [Example 150, 1-Methyl-2-(6-trifluoromethoxy-benzothiazol-2-ylamino)-1H-benzimidazole-5-carboxylic acid (1-dimethylcarbamoyl-cyclopropyl)-amide] | 41.6
Cn1c(Nc2nc3ccc(OC(F)(F)F)cc3s2)nc2ccc(CC(N)=O)cc21 [Example 202, 2-[1-Methyl-2-(6-trifluoromethoxy-benzothiazol-2-ylamino)-1H-benzoimidazol-6-yl]-acetamide] | 15.6
COCCNC(=O)c1ccc2c(c1)nc(Nc1nc3cc(F)ccc3s1)n2C [Example 123, 2-(5-Fluoro-benzothiazol-2-ylamino)-1-methyl-1H-benzimidazole-5-carboxylic acid (2-methoxy-ethyl)-amide] | 12.7
CCn1c(Nc2nc3ccc(Cl)cc3s2)nc2cc(C(=O)NCCOC)ccc21 [Example 177, 2-(6-Chloro-benzothiazol-2-ylamino)-1-ethyl-1H-benzoimidazole-5-carboxylic acid (2-methoxy-ethyl)-amide] | 30.3
CCSCCNC(=O)c1ccc2c(c1)nc(Nc1nc3ccc(OC(F)(F)F)cc3s1)n2C [Example 107, 1-Methyl-2-(6-trifluoromethoxy-benzothiazol-2-ylamino)-1H-benzoimidazole-5-carboxylic acid (2-ethylsulfanyl-ethyl)-amide] | 18.6
CCNC(=O)c1cc2nc(Nc3nc4ccc(OC(F)(F)F)cc4s3)n(C)c2cc1OC [Example 64, 6-Methoxy-1-methyl-2-(6-trifluoromethoxy-benzothiazol-2-ylamino)-1H-benzoimidazole-5-carboxylic acid ethylamide] | 18.9
CCn1c(Nc2nc3ccc(OC(F)(F)F)cc3s2)nc2cc(C(=O)O)ccc21 [Example 154, 1-Ethyl-2-(6-trifluoromethoxy-benzothiazol-2-ylamino)-1H-benzoimidazole-5-carboxylic acid] | 27.1
C[C@@H](O)CNC(=O)c1ccc2c(c1)nc(Nc1nc3ccc(OC(F)(F)F)cc3s1)n2C [Example 51, 1-Methyl-2-(6-trifluoromethoxy-benzothiazol-2-ylamino)-1H-benzoimidazole-5-carboxylic acid ((R)-2-hydroxy-propyl)-amide] | 9.9
CNC(=O)c1ccc2c(c1)nc(Nc1nc3ccc(OC(F)(F)F)cc3s1)n2C [Example 1, 1-Methyl-2-(6-trifluoromethoxy-benzothiazol-2-ylamino)-1H-benzoimidazole-5-carboxylic acid methyl amide] | 19.4
CCCNC(=O)c1ccc2c(c1)nc(Nc1nc3ccc(OC(F)(F)F)cc3s1)n2C [Example 12, 1-Methyl-2-(6-trifluoromethoxy-benzothiazol-2-ylamino)-1H-benzoimidazole-5-carboxylic acid propylamide] | 16.2
Cn1c(Nc2nc3ccc(OC(F)(F)F)cc3s2)nc2cc(C(=O)NCC(=O)N3CCC(O)C3)ccc21 (stereo not shown) [Example 398, 1-Methyl-2-(6-trifluoromethoxy-benzothiazol-2-ylamino)-1H-benzoimidazole-5-carboxylic acid [2-(3-hydroxy-pyrrolidin-1-yl)-2-oxo-ethyl]-amide] | 31.7
Cn1c(Nc2nc3ccc(OC(F)(F)F)cc3s2)nc2cc(C(=O)N3CCN(CCO)CC3)ccc21 [Example 305, [4-(2-Hydroxy-ethyl)-piperazin-1-yl]-[1-methyl-2-(6-trifluoromethoxy-benzothiazol-2-ylamino)-1H-benzoimidazol-5-yl]-methanone] | 41.7
CN(C)N(C)C(=O)c1ccc2c(c1)nc(Nc1nc3ccc(OC(F)(F)F)cc3s1)n2C [Example 106, 1-Methyl-2-(6-trifluoromethoxy-benzothiazol-2-ylamino)-1H-benzimidazole-5-carboxylic acid trimethylhydrazide] | 23.8
CCNC(=O)c1cc2nc(Nc3nc4ccc(OC(F)(F)F)cc4s3)n(C)c2cc1F [Example 42, 6-Fluoro-1-methyl-2-(6-trifluoromethoxy-benzothiazol-2-ylamino)-1H-benzoimidazole-5-carboxylic acid ethylamide] | 34.7
CCN(CC)c1cc2c(cc1C(=O)NCCN1CCOCC1)nc(Nc1nc3ccc(OC(F)(F)F)cc3s1)n2C [Example 362, 6-Diethylamino-1-methyl-2-(6-trifluoromethoxy-benzothiazol-2-ylamino)-1H-benzoimidazole-5-carboxylic acid (2-morpholin-4-yl-ethyl)-amide] | 13
